Laboratory results taken from ChEMBL document CHEMBL5325488, “Discovery of SMD-3040 as a Potent and Selective SMARCA2 PROTAC Degrader with Strong in vivo Antitumor Activity” (J Med Chem, 2023).
Calls of active or inactive are those of the source. The rule behind the calls is not given here.

Assays:
[1] = Drug concentration in SCID mouse tumor xenografted with human MV4-11 cells at 50 mg/kg, iv measured after 48 hrs by LC-MS/MS method; format: ADME, organism-based, Neoplasm; details: read-out: Ct
[2] = target: T1, von Hippel-Lindau disease tumor suppressor/SWI/SNF-related matrix-associated actin-dependent regulator of chromatin subfamily A member 4 (Homo sapiens, UniProt P51532+P40337); experiment: In vivo PROTAC activity at VHL/SMARCA4 in SCID mouse xenografted with human MV4-11 cells assessed as reduction of SMARCA4 level in tumor at 50 mg/kg, iv administered as single dose measured after 6 hrs by Western blotting analysis; format: ADME, organism-based; design: scale not given: the % may be the effect or the level left
Target sequence in this assay (P51532 whole entry): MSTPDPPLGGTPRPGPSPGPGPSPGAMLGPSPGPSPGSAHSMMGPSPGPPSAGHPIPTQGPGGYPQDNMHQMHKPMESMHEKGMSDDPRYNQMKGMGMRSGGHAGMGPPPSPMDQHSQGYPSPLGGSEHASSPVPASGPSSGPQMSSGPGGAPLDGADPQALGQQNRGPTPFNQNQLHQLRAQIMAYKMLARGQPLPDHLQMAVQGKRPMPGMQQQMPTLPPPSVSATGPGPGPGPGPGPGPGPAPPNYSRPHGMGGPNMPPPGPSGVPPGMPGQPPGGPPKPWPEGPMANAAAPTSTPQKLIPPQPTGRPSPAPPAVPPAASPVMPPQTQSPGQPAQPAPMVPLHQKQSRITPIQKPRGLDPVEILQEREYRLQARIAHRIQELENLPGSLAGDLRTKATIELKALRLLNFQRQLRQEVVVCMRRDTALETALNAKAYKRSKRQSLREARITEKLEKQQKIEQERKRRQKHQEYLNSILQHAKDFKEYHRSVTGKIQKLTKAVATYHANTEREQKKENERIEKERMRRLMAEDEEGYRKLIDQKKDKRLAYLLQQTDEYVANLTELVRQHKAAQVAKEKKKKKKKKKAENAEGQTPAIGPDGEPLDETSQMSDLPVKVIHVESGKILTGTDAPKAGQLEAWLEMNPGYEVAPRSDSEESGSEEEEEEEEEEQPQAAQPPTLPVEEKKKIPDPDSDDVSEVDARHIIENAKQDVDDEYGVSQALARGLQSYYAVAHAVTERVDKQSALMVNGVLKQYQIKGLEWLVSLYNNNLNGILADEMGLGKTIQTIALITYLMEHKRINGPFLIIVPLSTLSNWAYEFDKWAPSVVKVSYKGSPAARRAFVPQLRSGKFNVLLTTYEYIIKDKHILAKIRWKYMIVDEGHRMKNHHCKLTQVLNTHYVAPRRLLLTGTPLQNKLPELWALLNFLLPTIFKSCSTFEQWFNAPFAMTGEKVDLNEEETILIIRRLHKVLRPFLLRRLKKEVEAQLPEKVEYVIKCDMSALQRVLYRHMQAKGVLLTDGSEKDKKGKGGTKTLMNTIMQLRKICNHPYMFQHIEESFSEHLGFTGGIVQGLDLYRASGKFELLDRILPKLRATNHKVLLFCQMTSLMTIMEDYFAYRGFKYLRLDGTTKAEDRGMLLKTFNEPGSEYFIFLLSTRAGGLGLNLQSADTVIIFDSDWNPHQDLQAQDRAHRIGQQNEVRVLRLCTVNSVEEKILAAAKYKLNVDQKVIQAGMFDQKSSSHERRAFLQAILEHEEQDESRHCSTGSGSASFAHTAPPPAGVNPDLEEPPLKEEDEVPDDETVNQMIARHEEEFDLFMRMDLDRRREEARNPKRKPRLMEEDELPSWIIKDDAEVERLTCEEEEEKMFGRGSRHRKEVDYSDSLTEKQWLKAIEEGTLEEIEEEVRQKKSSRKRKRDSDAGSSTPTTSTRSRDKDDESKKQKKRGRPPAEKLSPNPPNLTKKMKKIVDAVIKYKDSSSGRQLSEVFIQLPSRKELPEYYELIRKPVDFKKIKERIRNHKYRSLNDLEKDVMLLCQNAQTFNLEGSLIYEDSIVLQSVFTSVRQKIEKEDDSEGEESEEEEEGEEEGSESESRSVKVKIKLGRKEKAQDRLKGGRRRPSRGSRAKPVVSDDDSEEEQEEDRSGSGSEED
Target sequence in this assay (P40337 whole entry): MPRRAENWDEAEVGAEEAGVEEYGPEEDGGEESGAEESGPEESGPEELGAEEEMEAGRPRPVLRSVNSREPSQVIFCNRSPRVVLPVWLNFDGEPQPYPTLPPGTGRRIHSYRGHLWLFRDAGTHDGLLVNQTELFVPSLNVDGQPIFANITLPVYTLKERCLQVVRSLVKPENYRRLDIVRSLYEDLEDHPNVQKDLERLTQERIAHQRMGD

[3] = Drug concentration in SCID mouse plasma xenografted with human MV4-11 cells at 50 mg/kg, iv measured after 96 hrs by LC-MS/MS method; format: ADME, organism-based
[4] = target: T2, von Hippel-Lindau disease tumor suppressor/SWI/SNF-related matrix-associated actin-dependent regulator of chromatin subfamily A member 2 (Homo sapiens, UniProt P51531+P40337); experiment: In vivo PROTAC activity at VHL/SMARCA2 in SCID mouse xenografted with human NCI-H838 cells assessed as remaining activity in tumor at 50 mg/kg, iv administered as single dose measured after 24 hrs by Western blotting analysis (reference value: 100 +/- 7% ); format: functional, organism-based
Target sequence in this assay (P40337 whole entry, looked up): as the sequence (P40337 whole entry) above
Target sequence in this assay (P51531 whole entry, looked up): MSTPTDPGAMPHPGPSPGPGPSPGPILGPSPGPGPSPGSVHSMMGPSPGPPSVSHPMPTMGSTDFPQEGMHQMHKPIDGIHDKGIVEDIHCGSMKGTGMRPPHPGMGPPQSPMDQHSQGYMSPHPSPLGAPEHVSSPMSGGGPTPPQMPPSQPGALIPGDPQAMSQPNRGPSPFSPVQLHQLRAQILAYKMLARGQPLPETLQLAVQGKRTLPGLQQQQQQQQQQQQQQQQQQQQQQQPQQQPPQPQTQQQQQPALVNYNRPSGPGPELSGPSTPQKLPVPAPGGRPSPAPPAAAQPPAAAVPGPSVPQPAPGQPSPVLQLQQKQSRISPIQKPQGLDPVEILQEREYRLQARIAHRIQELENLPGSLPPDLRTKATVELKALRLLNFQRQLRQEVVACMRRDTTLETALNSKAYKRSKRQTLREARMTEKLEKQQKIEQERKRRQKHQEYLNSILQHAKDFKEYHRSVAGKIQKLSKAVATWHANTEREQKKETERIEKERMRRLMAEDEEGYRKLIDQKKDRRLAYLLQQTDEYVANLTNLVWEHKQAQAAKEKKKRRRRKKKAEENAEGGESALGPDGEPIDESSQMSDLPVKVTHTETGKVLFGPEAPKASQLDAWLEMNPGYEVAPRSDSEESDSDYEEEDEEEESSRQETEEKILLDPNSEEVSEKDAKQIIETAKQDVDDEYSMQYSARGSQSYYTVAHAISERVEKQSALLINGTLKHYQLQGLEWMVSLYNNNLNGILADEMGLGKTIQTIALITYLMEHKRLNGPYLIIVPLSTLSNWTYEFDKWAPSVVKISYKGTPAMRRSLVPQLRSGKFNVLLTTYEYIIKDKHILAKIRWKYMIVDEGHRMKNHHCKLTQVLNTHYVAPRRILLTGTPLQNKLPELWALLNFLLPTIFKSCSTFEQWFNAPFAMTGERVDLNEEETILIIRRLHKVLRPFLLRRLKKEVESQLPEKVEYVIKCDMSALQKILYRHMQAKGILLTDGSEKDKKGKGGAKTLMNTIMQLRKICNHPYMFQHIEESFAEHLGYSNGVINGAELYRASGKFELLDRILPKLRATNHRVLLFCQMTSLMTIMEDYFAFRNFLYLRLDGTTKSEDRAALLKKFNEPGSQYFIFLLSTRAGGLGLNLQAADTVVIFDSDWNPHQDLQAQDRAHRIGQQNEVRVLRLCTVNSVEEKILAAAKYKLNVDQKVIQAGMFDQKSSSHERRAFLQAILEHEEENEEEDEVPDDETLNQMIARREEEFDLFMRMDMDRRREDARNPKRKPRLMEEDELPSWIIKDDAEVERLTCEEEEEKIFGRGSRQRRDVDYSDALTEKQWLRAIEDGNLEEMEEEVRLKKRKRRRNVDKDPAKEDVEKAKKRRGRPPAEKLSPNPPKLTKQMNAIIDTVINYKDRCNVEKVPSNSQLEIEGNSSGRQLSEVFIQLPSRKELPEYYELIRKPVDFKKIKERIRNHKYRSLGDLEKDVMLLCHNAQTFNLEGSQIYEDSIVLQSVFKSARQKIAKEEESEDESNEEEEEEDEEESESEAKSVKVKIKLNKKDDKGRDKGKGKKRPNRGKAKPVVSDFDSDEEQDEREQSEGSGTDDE

[5] = Antiproliferative activity against SMARCA4-deficient human NCI-H1568 cells assessed as cell growth inhibition by measuring maximal efficacy measured after 7 days by WST-8 assay relative to control; format: functional; details: time 7 day
[6] = target: T1, von Hippel-Lindau disease tumor suppressor/SWI/SNF-related matrix-associated actin-dependent regulator of chromatin subfamily A member 4; experiment: PROTAC activity at VHL/C-terminal HiBiT fused SMARCA4 in human HeLa cells assessed as induction of SMARCA4 degradation at 0.001 to 10 uM by Nano-Glo HiBiT analysis; format: cell-based; details: dose 0.001-10 µM, time 1-48 hrs, TDE = time-dependent effect
[7] = target: T2, von Hippel-Lindau disease tumor suppressor/SWI/SNF-related matrix-associated actin-dependent regulator of chromatin subfamily A member 2; experiment: In vivo PROTAC activity at VHL/SMARCA2 in SCID mouse xenografted with human NCI-H838 cells assessed as reduction of SMARCA2 level in tumor at 50 mg/kg, iv administered as single dose measured after 48 hrs by Western blotting analysis; format: functional, organism-based; design: scale not given: the % may be the effect or the level left
Target sequence in this assay (P40337 whole entry, looked up): as the sequence (P40337 whole entry) above
Target sequence in this assay (P51531 whole entry, looked up): as the sequence (P51531 whole entry, looked up) above

[8] = Drug concentration in SCID mouse plasma xenografted with human MV4-11 cells at 50 mg/kg, iv measured after 24 hrs by LC-MS/MS method; format: ADME, organism-based
[9] = target: T2, von Hippel-Lindau disease tumor suppressor/SWI/SNF-related matrix-associated actin-dependent regulator of chromatin subfamily A member 2; experiment: In vivo PROTAC activity at VHL/SMARCA2 in SCID mouse xenografted with human MV4-11 cells assessed as reduction of SMARCA2 level in tumor at 50 mg/kg, iv administered as single dose measured after 2 hrs by Western blotting analysis; format: ADME, organism-based; design: scale not given: the % may be the effect or the level left
[10] = tested on: NCI-H1693; experiment: Antiproliferative activity against SMARCA4-deficient human NCI-H1693 cells assessed as cell growth inhibition by measuring maximal efficacy measured after 7 days by WST-8 assay relative to control; format: functional; details: time 7 day
[11] = tested on: A549; experiment: Antiproliferative activity against SMARCA4-deficient human A549 cells assessed as cell growth inhibition measured after 7 days by WST-8 assay; format: functional; details: A549, 168 h, time 7 day
[12] = target: T2, von Hippel-Lindau disease tumor suppressor/SWI/SNF-related matrix-associated actin-dependent regulator of chromatin subfamily A member 2; experiment: PROTAC activity at VHL/C-terminal HiBiT fused SMARCA2 in human HeLa cells assessed as induction of SMARCA2 degradation pre-treated with MLN4924 for 2 hrs followed by compound treatment for 24 hrs by Nano-Glo HiBiT analysis; format: cell-based
Target sequence in this assay (P40337 whole entry, looked up): as the sequence (P40337 whole entry) above
Target sequence in this assay (P51531 whole entry, looked up): as the sequence (P51531 whole entry, looked up) above

[13] = target: T2, von Hippel-Lindau disease tumor suppressor/SWI/SNF-related matrix-associated actin-dependent regulator of chromatin subfamily A member 2; experiment: PROTAC activity at VHL/wild-type SMARCA2 in human NCI-H838 cells assessed as induction of SMARCA2 degradation incubated for 24 hrs by Western blotting analysis; format: cell-based
[14] = target: T2, von Hippel-Lindau disease tumor suppressor/SWI/SNF-related matrix-associated actin-dependent regulator of chromatin subfamily A member 2; experiment: In vivo PROTAC activity at VHL/SMARCA2 in SCID mouse xenografted with human MV4-11 cells assessed as remaining activity in tumor at 50 mg/kg, iv administered as single dose measured after 72 hrs by Western blotting analysis (reference value: 100 +/- 15 % ); format: ADME, organism-based
[15] = tested on: NCI-H1693; experiment: Antiproliferative activity against SMARCA4-deficient human NCI-H1693 cells assessed as cell growth inhibition measured after 7 days by WST-8 assay; format: functional; details: NCI-H1693, 168 h, time 7 day
[16] = target: T2, von Hippel-Lindau disease tumor suppressor/SWI/SNF-related matrix-associated actin-dependent regulator of chromatin subfamily A member 2; experiment: PROTAC activity at VHL/C-terminal HiBiT fused SMARCA2 in human HeLa cells assessed as induction of SMARCA2 degradation by measuring maximal efficacy incubated for 24 hrs by Nano-Glo HiBiT analysis relative to control; format: cell-based
Target sequence in this assay (P40337 whole entry, looked up): as the sequence (P40337 whole entry) above
Target sequence in this assay (P51531 whole entry, looked up): as the sequence (P51531 whole entry, looked up) above

[17] = target: T1, von Hippel-Lindau disease tumor suppressor/SWI/SNF-related matrix-associated actin-dependent regulator of chromatin subfamily A member 4; experiment: In vivo PROTAC activity at VHL/SMARCA4 in SCID mouse xenografted with human MV4-11 cells assessed as remaining activity in tumor at 50 mg/kg, iv administered as single dose measured after 72 hrs by Western blotting analysis (reference value: 100 +/- 15 % ); format: ADME, organism-based
Target sequence in this assay (P51532 whole entry): as the sequence (P51532 whole entry) above
Target sequence in this assay (P40337 whole entry): as the sequence (P40337 whole entry) above

[18] = tested on: NCI-H1793; experiment: Antiproliferative activity against SMARCA4-deficient human NCI-H1793 cells assessed as cell growth inhibition by measuring maximal efficacy measured after 7 days by WST-8 assay relative to control; format: functional; details: time 7 day
[19] = target: T1, von Hippel-Lindau disease tumor suppressor/SWI/SNF-related matrix-associated actin-dependent regulator of chromatin subfamily A member 4; experiment: In vivo PROTAC activity at VHL/SMARCA4 in SCID mouse xenografted with human MV4-11 cells assessed as reduction of SMARCA4 level in tumor at 50 mg/kg, iv administered as single dose measured after 48 hrs by Western blotting analysis; format: ADME, organism-based; design: scale not given: the % may be the effect or the level left
Target sequence in this assay (P51532 whole entry): as the sequence (P51532 whole entry) above
Target sequence in this assay (P40337 whole entry): as the sequence (P40337 whole entry) above

[20] = tested on: NCI-H1299; experiment: Antiproliferative activity against SMARCA4-deficient human NCI-H1299 cells assessed as cell growth inhibition measured after 7 days by WST-8 assay; format: functional; details: NCI-H1299, 168 h, time 7 day
[21] = target: T1, von Hippel-Lindau disease tumor suppressor/SWI/SNF-related matrix-associated actin-dependent regulator of chromatin subfamily A member 4; experiment: PROTAC activity at VHL/C-terminal HiBiT fused SMARCA4 in human HeLa cells assessed as induction of SMARCA4 degradation incubated for 6 hrs by Nano-Glo HiBiT analysis; format: cell-based
Target sequence in this assay (P51532 whole entry): as the sequence (P51532 whole entry) above
Target sequence in this assay (P40337 whole entry): as the sequence (P40337 whole entry) above

[22] = target: T2, von Hippel-Lindau disease tumor suppressor/SWI/SNF-related matrix-associated actin-dependent regulator of chromatin subfamily A member 2; experiment: In vivo PROTAC activity at VHL/SMARCA2 in SCID mouse xenografted with human NCI-H838 cells assessed as remaining activity in tumor at 50 mg/kg, iv administered as single dose measured after 48 hrs by Western blotting analysis (reference value: 100 +/- 7% ); format: functional, organism-based
Target sequence in this assay (P40337 whole entry, looked up): as the sequence (P40337 whole entry) above
Target sequence in this assay (P51531 whole entry, looked up): as the sequence (P51531 whole entry, looked up) above

[23] = Drug concentration in SCID mouse tumor xenografted with human MV4-11 cells at 50 mg/kg, iv measured after 96 hrs by LC-MS/MS method; format: ADME, organism-based, Neoplasm; details: read-out: Ct
[24] = tested on: NCI-H838; experiment: Antiproliferative activity against SMARCA4-deficient human NCI-H838 cells assessed as cell growth inhibition by measuring maximal efficacy measured after 7 days by WST-8 assay relative to control; format: functional; details: time 7 day
[25] = tested on: NCI-H1793; experiment: Antiproliferative activity against SMARCA4-deficient human NCI-H1793 cells assessed as cell growth inhibition measured after 7 days by WST-8 assay; format: functional; details: NCI-H1793, 168 h, time 7 day
[26] = target: T2, von Hippel-Lindau disease tumor suppressor/SWI/SNF-related matrix-associated actin-dependent regulator of chromatin subfamily A member 2; experiment: In vivo PROTAC activity at VHL/SMARCA2 in SCID mouse xenografted with human NCI-H838 cells assessed as remaining activity in tumor at 50 mg/kg, iv administered as single dose measured after 96 hrs by Western blotting analysis (reference value: 100 +/- 7% ); format: functional, organism-based
Target sequence in this assay (P40337 whole entry, looked up): as the sequence (P40337 whole entry) above
Target sequence in this assay (P51531 whole entry, looked up): as the sequence (P51531 whole entry, looked up) above

[27] = tested on: NCI-H1944; experiment: Antiproliferative activity against SMARCA4-deficient human NCI-H1944 cells assessed as cell growth inhibition measured after 7 days by WST-8 assay; format: functional; details: NCI-H1944, 168 h, time 7 day

Cc1ncsc1-c1ccc([C@H](C)NC(=O)[C@@H]2C[C@@H](O)CN2C(=O)[C@@H](NC(=O)[C@H]2CC[C@H](CN3CC4(CCC(n5cc(-c6cc(-c7ccccc7O)nnc6N)cn5)CC4)C3)CC2)C(C)(C)C)cc1
concentration at 48 h [1]: 978 ng/g | Activity [2]: 17% | concentration at 96 h [3]: 19.6 ng/mL | Activity [4]: 9% | Imax [5]: 79% | Activity [6]: Tde | Activity [7]: 75% | concentration at 24 h [8]: 218 ng/mL | Activity [9]: 78% | Imax [10]: 79% | GI50 [11]: 42 nM | Activity [12]: inactive | DC50 [13]: 63 nM | Activity [14]: 44% | GI50 [15]: 15 nM | Emax [16]: 91% | Activity [17]: 91% | Imax [18]: 69% | Activity [19]: 13% | GI50 [20]: > 10000 nM | DC50 [21]: > 3300 nM | Activity [22]: 25% | concentration at 96 h [23]: 560 ng/g | Imax [24]: 83% | GI50 [25]: 21 nM | Activity [26]: 33% | GI50 [27]: 30 nM
